From US20110173718A1, “HERBICIDE TOLERANT PLANTS” (SYNGENTA CROP PROTECTION, INC., priority 2008, published 2011)

What was measured:
weeds [1] = experiment: Glasshouse weed control, HST inhibitors alone and with A22, post-emergence; assay type: in vivo; details: 336 h, 14 DAT, single replicate, read-out: % control score, Obs; for pest or weed control at 15.625 g/ha: 15.625 g/ha alone; for pest or weed control at 62.5 g/ha: 62.5 g/ha alone; for pest or weed control at 250 g/ha: 250 g/ha alone
How it was run: (§1)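 Weeds grown in glasshouse trays (24-27 C day, 18-21 C night, ~15 h photoperiod) and track-sprayed in 0.2% X77 at […], pre-emergence or post-emergence at about 7-12 d. HPPD inhibitor A22 applied at 2 g/ha alone or mixed with HST herbicides. Damage scored 0–100% at 14 DAT; synergy calculated by Colby formula.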

weeds [2] = experiment: Glasshouse weed control, HST inhibitors alone and with A22, pre-emergence; assay type: in vivo; details: 336 h, 14 DAT; for pest or weed control at 15.625 g/ha: HST inhibitor rate 15.625 g/ha; for pest or weed control at 62.5 g/ha: HST inhibitor rate 62.5 g/ha; for pest or weed control at 250 g/ha: HST inhibitor rate 250 g/ha
How it was run: as §1

[3] = BRAPL, read-out: BRAPL Obs, % control score
[4] = PANMI, read-out: PANMI Obs, % control score
[5] = SIDSP, read-out: SIDSP Obs, % control score
[6] = Digitaria sanguinalis, DIGSA, read-out: DIGSA Obs, % control score
[7] = Echinochloa crus-galli, ECHCG, read-out: ECHCG Obs, % control score
[8] = Setaria faberi, SETFA, read-out: SETFA Obs, % control score

Row | SMILES | pest or weed control at 15.625 g/ha (weeds [1]; BRAPL) [%] | pest or weed control at 62.5 g/ha (weeds [1]; BRAPL) [%] | pest or weed control at 250 g/ha (weeds [1]; BRAPL) [%] | pest or weed control at 15.625 g/ha (weeds [1]; PANMI) [%] | pest or weed control at 62.5 g/ha (weeds [1]; PANMI) [%] | pest or weed control at 250 g/ha (weeds [1]; PANMI) [%] | pest or weed control at 15.625 g/ha (weeds [1]; SIDSP) [%] | pest or weed control at 62.5 g/ha (weeds [1]; SIDSP) [%] | pest or weed control at 250 g/ha (weeds [1]; SIDSP) [%] | pest or weed control at 15.625 g/ha (weeds [1]; Digitaria sanguinalis, DIGSA) [%] | pest or weed control at 62.5 g/ha (weeds [1]; Digitaria sanguinalis, DIGSA) [%] | pest or weed control at 250 g/ha (weeds [1]; Digitaria sanguinalis, DIGSA) [%] | pest or weed control at 15.625 g/ha (weeds [1]; Echinochloa crus-galli, ECHCG) [%] | pest or weed control at 62.5 g/ha (weeds [1]; Echinochloa crus-galli, ECHCG) [%] | pest or weed control at 250 g/ha (weeds [1]; Echinochloa crus-galli, ECHCG) [%] | pest or weed control at 15.625 g/ha (weeds [1]; Setaria faberi, SETFA) [%] | pest or weed control at 62.5 g/ha (weeds [1]; Setaria faberi, SETFA) [%] | pest or weed control at 250 g/ha (weeds [1]; Setaria faberi, SETFA) [%] | pest or weed control at 15.625 g/ha (weeds [2]; [3]) [%] | pest or weed control at 62.5 g/ha (weeds [2]; [3]) [%] | other results
1 | O=c1c(-c2c(F)ccc(Br)c2Cl)c(O)c2nccnc2n1CC(F)F [Compound 2.8] | 20 | 55 | 85 | 40 | 50 | 80 | 30 | 45 | 50 | 5 | 20 | 60 | 10 | 40 | 65 | 5 | 65 | 60 | 0 | 1 | pest or weed control at 250 g/ha (weeds [2]; [3]): 15%; pest or weed control at 15.625 g/ha (weeds [2]; [4]): 0%; pest or weed control at 62.5 g/ha (weeds [2]; [4]): 0%; pest or weed control at 250 g/ha (weeds [2]; [4]): 60%; pest or weed control at 15.625 g/ha (weeds [2]; [5]): 0%; pest or weed control at 62.5 g/ha (weeds [2]; [5]): 0%; pest or weed control at 250 g/ha (weeds [2]; [5]): 2%; pest or weed control at 15.625 g/ha (weeds [2]; [6]): 0%; pest or weed control at 62.5 g/ha (weeds [2]; [6]): 0%; pest or weed control at 250 g/ha (weeds [2]; [6]): 30%; pest or weed control at 15.625 g/ha (weeds [2]; [7]): 0%; pest or weed control at 62.5 g/ha (weeds [2]; [7]): 2%; pest or weed control at 250 g/ha (weeds [2]; [7]): 50%; pest or weed control at 15.625 g/ha (weeds [2]; [8]): 0%; pest or weed control at 62.5 g/ha (weeds [2]; [8]): 0%; pest or weed control at 250 g/ha (weeds [2]; [8]): 10%
2 | O=c1c(-c2cc(C(F)(F)F)ccc2Cl)c(O)c2nccnc2n1CC(F)F [Compound 2.9] | 15 | 55 | 70 | 30 | 50 | 70 | 10 | 20 | 20 | 2 | 10 | 15 | 20 | 40 | 70 | 20 | 50 | 65 | 0 | 2 | pest or weed control at 250 g/ha (weeds [2]; [3]): 50%; pest or weed control at 15.625 g/ha (weeds [2]; [4]): 0%; pest or weed control at 62.5 g/ha (weeds [2]; [4]): 0%; pest or weed control at 250 g/ha (weeds [2]; [4]): 60%; pest or weed control at 15.625 g/ha (weeds [2]; [5]): 0%; pest or weed control at 62.5 g/ha (weeds [2]; [5]): 0%; pest or weed control at 250 g/ha (weeds [2]; [5]): 40%; pest or weed control at 15.625 g/ha (weeds [2]; [6]): 0%; pest or weed control at 62.5 g/ha (weeds [2]; [6]): 0%; pest or weed control at 250 g/ha (weeds [2]; [6]): 65%; pest or weed control at 15.625 g/ha (weeds [2]; [7]): 0%; pest or weed control at 62.5 g/ha (weeds [2]; [7]): 0%; pest or weed control at 250 g/ha (weeds [2]; [7]): 60%; pest or weed control at 15.625 g/ha (weeds [2]; [8]): 0%; pest or weed control at 62.5 g/ha (weeds [2]; [8]): 0%; pest or weed control at 250 g/ha (weeds [2]; [8]): 30%
3 | O=c1c(-c2c(Cl)ccc(Cl)c2Cl)c(O)c2nccnc2n1CC(F)F [Compound 2.14] | 30 | 60 | 60 | 40 | 60 | 90 | 15 | 30 | 50 | 10 | 20 | 20 | 30 | 50 | 65 | 25 | 60 | 70 | 0 | 2 | pest or weed control at 250 g/ha (weeds [2]; [3]): 20%; pest or weed control at 15.625 g/ha (weeds [2]; [4]): 0%; pest or weed control at 62.5 g/ha (weeds [2]; [4]): 0%; pest or weed control at 250 g/ha (weeds [2]; [4]): 2%; pest or weed control at 15.625 g/ha (weeds [2]; [5]): 0%; pest or weed control at 62.5 g/ha (weeds [2]; [5]): 0%; pest or weed control at 250 g/ha (weeds [2]; [5]): 5%; pest or weed control at 15.625 g/ha (weeds [2]; [6]): 0%; pest or weed control at 62.5 g/ha (weeds [2]; [6]): 0%; pest or weed control at 250 g/ha (weeds [2]; [6]): 5%; pest or weed control at 15.625 g/ha (weeds [2]; [7]): 0%; pest or weed control at 62.5 g/ha (weeds [2]; [7]): 5%; pest or weed control at 250 g/ha (weeds [2]; [7]): 50%; pest or weed control at 15.625 g/ha (weeds [2]; [8]): 0%; pest or weed control at 62.5 g/ha (weeds [2]; [8]): 2%; pest or weed control at 250 g/ha (weeds [2]; [8]): 20%
4 | O=c1c(-c2c(F)ccc(Br)c2Cl)c(O)c2cccnc2n1CC(F)F [Compound 2.15] | 0 | 0 | 5 | 0 | 0 | 0 | 0 | 10 | 15 | 0 | 0 | 0 | 0 | 0 | 2 | 0 | 0 | 2 | 0 | 0 | pest or weed control at 250 g/ha (weeds [2]; [3]): 0%; pest or weed control at 15.625 g/ha (weeds [2]; [4]): 0%; pest or weed control at 62.5 g/ha (weeds [2]; [4]): 0%; pest or weed control at 250 g/ha (weeds [2]; [4]): 0%; pest or weed control at 15.625 g/ha (weeds [2]; [5]): 0%; pest or weed control at 62.5 g/ha (weeds [2]; [5]): 0%; pest or weed control at 250 g/ha (weeds [2]; [5]): 0%; pest or weed control at 15.625 g/ha (weeds [2]; [6]): 0%; pest or weed control at 62.5 g/ha (weeds [2]; [6]): 0%; pest or weed control at 250 g/ha (weeds [2]; [6]): 0%; pest or weed control at 15.625 g/ha (weeds [2]; [7]): 0%; pest or weed control at 62.5 g/ha (weeds [2]; [7]): 0%; pest or weed control at 250 g/ha (weeds [2]; [7]): 0%; pest or weed control at 15.625 g/ha (weeds [2]; [8]): 0%; pest or weed control at 62.5 g/ha (weeds [2]; [8]): 0%; pest or weed control at 250 g/ha (weeds [2]; [8]): 0%
